US9198979B2, “Thiazolidine linker for the conjugation of drugs to antibodies” (Philogen S.P.A., priority 2010, dated 2015)
Read-outs that look alike come from different tables or passages of the source.

Experiments:
HEK293T cells = experiment: In vitro toxicity assay (MTS cell proliferation assay), HEK293T; type: cell-based, human; conditions: ~72 hours
Method: HEK293T cells were grown in RPMI (Gigbo-Invitrogen) medium supplemented with 10% FCS and antibiotics and maintained at 37° C. in 5% CO2.
(§1) For the in vitro toxicity assay 30000 cells/well (final volume 100 μl) were seeded in a 96 well plate with a defined peptide dilution (by adding 1.5 μl of peptide solution to 500 μl of cell suspension) and incubated at 37° C. in 5% CO2.
(§2) After ˜72 hours, cell viability was measured using the “Cell Titer 96®Aqueous One Solution Cell Proliferation Assay” (Promega), performed according to the manufacturers instruction. Briefly: 20 μl of MTS solution were added to each well, the plate was then incubated at 37° C. for 2 hour. The read out of the assay is the absorbance at 490 nm.

F9 teratocarcinoma cells = experiment: In vitro toxicity assay (MTS cell proliferation assay), F9; type: cell-based, murine; conditions: F9, ~72 hours
Method: as §1, §2
(§3) The experiments were then extended to F9 and HL60 cells in the same manner.
Cem-CH2—SH cell killing ability was evaluated by cytotoxicity assays: one non-tumor cell line (human embryonic kidney cells, HEK 293T) and two tumor cell lines, murine F9 teratocarcinoma cells (F9) and human promyelocytic leukemia cells (HL60), were incubated over 3 days with different concentrations of non-modified cemadotin and the derivative Cem-CH2—SH (FIG. 20).

HL60 cells = experiment: In vitro toxicity assay (MTS cell proliferation assay), HL60; type: cell-based, human; conditions: HL60, ~72 hours
Method: as §1, §2, §3

Substance	cytotoxicity (IC50) (HEK293T cells)	cytotoxicity (IC50) (F9 teratocarcinoma cells)	cytotoxicity (IC50) (HL60 cells)	t1/2 thiazolidine (fluorescein release half-life) (pH 6.6)	t1/2 thiazolidine (fluorescein release half-life) (pH 7.4)
Cemadotin	sub-nanomolar	sub-nanomolar	sub-nanomolar	–	–
BSA-fluorescein conjugate: BSA conjugated to carboxyfluorescein by the thiazolidine linker	–	–	–	37 h	44 h
